Results taken from the supplement of paper PMC8149375.

What was measured:
Details in all cases: treatment: drug alone; 5 days
ACHN [1] = test: minimum viability across doses, drug alone, relative to DMSO (fraction); higher = less growth inhibition
Method: (§1)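 Primary HTS: 8 RCC cell lines treated with 8 doses (up to 10 uM) of each library drug alone for 5 days; viability read by CellTiter-Glo and normalised to DMSO. GI50 was fitted with XLfit (4-parameter), AUC is the area under the dose-response curve, and minimum viability is the lowest fraction of DMSO viability across doses.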

769-P [2] = test: as above
Method: as §1

TK-10 [3] = test: as above
Method: as §1

UO-31 [4] = test: as above
Method: as §1

786-O [5] = test: as above
Method: as §1

SN12C [6] = test: as above
Method: as §1

A498 [7] = test: as above
Method: as §1

CAKI-1 [8] = test: as above
Method: as §1

ACHN [9] = test: GI50, drug alone; higher = less potent
Method: as §1

769-P [10] = test: GI50, drug alone; higher = less potent
Method: as §1

TK-10 [11] = test: GI50, drug alone; higher = less potent
Method: as §1

UO-31 [12] = test: GI50, drug alone; higher = less potent
Method: as §1

786-O [13] = test: GI50, drug alone; higher = less potent
Method: as §1

SN12C [14] = test: GI50, drug alone; higher = less potent
Method: as §1

A498 [15] = test: GI50, drug alone; higher = less potent
Method: as §1

CAKI-1 [16] = test: GI50, drug alone; higher = less potent
Method: as §1

ACHN [17] = test: AUC of dose-response viability curve, drug alone (arbitrary (AUC of normalised viability)); higher = less growth inhibition
Method: as §1

769-P [18] = test: as above
Method: as §1

TK-10 [19] = test: as above
Method: as §1

UO-31 [20] = test: as above
Method: as §1

786-O [21] = test: as above
Method: as §1

SN12C [22] = test: as above
Method: as §1

A498 [23] = test: as above
Method: as §1

CAKI-1 [24] = test: as above
Method: as §1

| SMILES | minimum viability across doses (ACHN [1]) | minimum viability across doses (769-P [2]) | minimum viability across doses (TK-10 [3]) | minimum viability across doses (UO-31 [4]) | minimum viability across doses (786-O [5]) | minimum viability across doses (SN12C [6]) | minimum viability across doses (A498 [7]) | minimum viability across doses (CAKI-1 [8]) | GI50, drug alone (ACHN [9]) [nM] | GI50, drug alone (769-P [10]) [nM] | GI50, drug alone (TK-10 [11]) [nM] | GI50, drug alone (UO-31 [12]) [nM] | GI50, drug alone (786-O [13]) [nM] | GI50, drug alone (SN12C [14]) [nM] | GI50, drug alone (A498 [15]) [nM] | GI50, drug alone (CAKI-1 [16]) [nM] | AUC of dose-response viability curve (ACHN [17]) | AUC of dose-response viability curve (769-P [18]) | AUC of dose-response viability curve (TK-10 [19]) | AUC of dose-response viability curve (UO-31 [20]) | AUC of dose-response viability curve (786-O [21]) | AUC of dose-response viability curve (SN12C [22]) | AUC of dose-response viability curve (A498 [23]) | AUC of dose-response viability curve (CAKI-1 [24]) |
| --- | --- | --- | --- | --- | --- | --- | --- | --- | --- | --- | --- | --- | --- | --- | --- | --- | --- | --- | --- | --- | --- | --- | --- | --- |
| CN1C(=O)C(Cc2c[nH]c3ccccc23)NC1=S (stereo not drawn) [Necrostatin-1] | 0.79 | 0.968 | 0.729 | 1.01 | 0.334 | 0.868 | 0.888 | 0.916 | > 10000 | > 10000 | > 10000 | > 10000 | 28.3 | > 10000 | > 10000 | > 10000 | 2.99 | 3.6 | 2.91 | 4.83 | 2.03 | 3.29 | 4.28 | 3.5 |
| CCOc1cc2ncc(C#N)c(Nc3ccc(OCc4ccccn4)c(Cl)c3)c2cc1NC(=O)/C=C/CN(C)C [Neratinib (HKI-272)] | 0.117 | 0.0782 | 0.251 | 0.697 | 0.345 | 0.315 | 0.894 | 0.161 | 77.1 | 1140 | 161 | > 10000 | 756 | 1350 | > 10000 | 407 | 1.48 | 2.43 | 1.77 | 4.06 | 2.38 | 2.44 | 3.99 | 2.11 |
| Cc1cn(-c2cc(NC(=O)c3ccc(C)c(Nc4nccc(-c5cccnc5)n4)c3)cc(C(F)(F)F)c2)cn1 [Nilotinib (AMN-107)] | 0.797 | 0.93 | 0.56 | 0.654 | 0.827 | 0.877 | 0.788 | 0.763 | > 10000 | > 10000 | > 10000 | > 10000 | > 10000 | > 10000 | > 10000 | > 10000 | 3.32 | 3.46 | 2.96 | 4.08 | 3.8 | 3.37 | 4.05 | 3.76 |
| COc1ccc(C2=NC(c3ccc(Cl)cc3)C(c3ccc(Cl)cc3)N2C(=O)N2CCNC(=O)C2)c(OC(C)C)c1 (stereo not drawn) [Nutlin-3] | 0.278 | 0.677 | 0.805 | 0.99 | 0.756 | 0.846 | 0.914 | 0.383 | 5640 | > 10000 | > 10000 | > 10000 | > 10000 | > 10000 | > 10000 | 8040 | 2.82 | 3.42 | 2.99 | 4.29 | 3.29 | 3.31 | 3.9 | 3.34 |
| COc1cccc2cc(-c3nc([C@H]4CC[C@H](C(=O)O)CC4)n4ncnc(N)c34)[nH]c12 [OSI-027] | 0.105 | 0.408 | 0.191 | 0.00484 | 0.185 | 0.168 | 0.148 | 0.0475 | 1910 | 8490 | 1930 | 2520 | 1660 | 2390 | 9270 | 1170 | 2.85 | 3.12 | 2.64 | 3.1 | 2.49 | 2.77 | 3.75 | 2.58 |
| C#Cc1cccc(Nc2ncnc3cc(OCCOC)c(OCCO)cc23)c1.Cl [OSI-420 (Desmethyl Erlotinib)] | 0.101 | 0.36 | 0.416 | 0.906 | 0.443 | 0.6 | 0.92 | 0.159 | 827 | 3590 | 2420 | > 10000 | 101 | > 10000 | > 10000 | 3010 | 2.38 | 2.69 | 2.29 | 3.38 | 2.49 | 2.95 | 3.79 | 2.79 |
| O=C(Nc1ccc(OC(F)(F)F)cc1)c1sccc1NCc1ccnc2ccccc12 [OSI-930] | 0.175 | 0.871 | 0.572 | 0.173 | 0.372 | 0.158 | 0.722 | 0.264 | 5420 | > 10000 | > 10000 | 1350 | 7470 | 8320 | > 10000 | 8110 | 3.25 | 3.39 | 3.23 | 3.46 | 2.81 | 3.5 | 3.58 | 3.63 |
| COC1=CC(c2cc3ccccc3[nH]2)=N/C1=C\c1[nH]c(C)cc1C.CS(=O)(=O)O [Obatoclax mesylate (GX15-070)] | 0.0118 | 0.0323 | 0.17 | 0.00526 | 0.0051 | 0.00313 | 0.00496 | 0.011 | 81.1 | 309 | 185 | 158 | 7.53 | 213 | 438 | 379 | 1.41 | 2.01 | 1.79 | 2.07 | 0.668 | 1.74 | 1.95 | 2.23 |
| C=CCc1cccc(/C=N/NC(=O)CN2CCN(Cc3ccccc3)CC2)c1O [PAC-1] | 0.0162 | 0.0295 | 0.0835 | 0.0166 | 0.00713 | 0.138 | 0.368 | 0.117 | 740 | 2320 | 1620 | 1700 | 610 | 3350 | 8780 | 3230 | 2.23 | 2.94 | 2.69 | 3.29 | 2.18 | 3.01 | 3.43 | 3.2 |
| CCCCCCCCCCCCc1ccc(S(=O)(=O)Nc2nncs2)cc1 [PHT-427] | 0.824 | 0.855 | 0.797 | 1.14 | 0.512 | 0.858 | 1.05 | 0.959 | > 10000 | > 10000 | > 10000 | > 10000 | > 10000 | > 10000 | > 10000 | > 10000 | 3.08 | 3.26 | 2.94 | 4.78 | 2.32 | 3.22 | 4.29 | 3.62 |
| Oc1cccc(-c2nc(N3CCOCC3)c3oc4ncccc4c3n2)c1 [PI-103] | 0.119 | 0.0599 | 0.136 | 0.0085 | 0.00638 | 0.118 | 0.0881 | 0.0544 | 286 | 1360 | 527 | 339 | 355 | 360 | 584 | 858 | 2.08 | 2.53 | 2.15 | 1.8 | 2 | 1.91 | 2.26 | 2.37 |
| Cc1ccc([N+](=O)[O-])cc1S(=O)(=O)N(C)/N=C/c1cnc2ccc(Br)cn12.Cl [PIK-75] | 0.00398 | 0.0087 | 0.121 | 0.00672 | 0.00345 | 0.00713 | 0.0119 | 0.0354 | 30.1 | 117 | 70.5 | 84 | 40.2 | 70 | 82.1 | 25.8 | 1.01 | 1.61 | 1.56 | 1.71 | 1.09 | 1.33 | 1.5 | 0.988 |
| COc1ccc2c(c1OC)N=C(NC(=O)c1cccnc1)N1CCN=C21 [PIK-90] | 0.655 | 0.693 | 0.616 | 0.822 | 0.53 | 0.175 | 1.02 | 0.358 | > 10000 | > 10000 | > 10000 | > 10000 | > 10000 | 3410 | > 10000 | 3060 | 3.1 | 3.07 | 2.75 | 3.42 | 2.46 | 2.7 | 3.98 | 2.42 |
| CC(=O)Nc1nc(C)c(-c2ccc(Cl)c(S(=O)(=O)NCCO)c2)s1 [PIK-93] | 0.408 | 0.565 | 0.377 | 1.15 | 0.202 | 0.434 | 0.8 | 0.287 | 7460 | > 10000 | 8010 | > 10000 | 746 | 8030 | > 10000 | 5070 | 3.14 | 3.19 | 2.74 | 4.68 | 1.86 | 2.98 | 4.19 | 3.11 |
| Cc1ccccc1-n1c(Cn2ncc3c(N)ncnc32)nc2cccc(C)c2c1=O [PIK-293] | 0.928 | 0.949 | 0.734 | 1.2 | 0.581 | 0.837 | 0.982 | 0.902 | > 10000 | > 10000 | > 10000 | > 10000 | > 10000 | > 10000 | > 10000 | > 10000 | 3.53 | 3.49 | 3.07 | 4.72 | 2.42 | 3.16 | 3.9 | 3.46 |
| CCn1nnc2c(N3CCOCC3)nc(-c3ccc(NC(=O)Nc4ccc(C(=O)N5CCN(C)CC5)cc4)cc3)nc21 [PKI-402] | 0.0633 | 0.102 | 0.0487 | 0.0165 | 0.00561 | 0.118 | 0.156 | 0.0473 | 224 | 1140 | 179 | 162 | 117 | 99.1 | 165 | 241 | 1.89 | 2.51 | 1.71 | 1.99 | 1.66 | 1.66 | 2.25 | 1.91 |
| CCCS(=O)(=O)Nc1ccc(F)c(C(=O)c2c[nH]c3ncc(Cl)cc23)c1F [PLX-4720] | 0.197 | 0.817 | 0.574 | 0.944 | 0.335 | 0.875 | 0.885 | 0.278 | 2460 | > 10000 | > 10000 | > 10000 | 4860 | > 10000 | > 10000 | 7550 | 2.57 | 3.18 | 3.13 | 4.19 | 2.5 | 3.44 | 4.12 | 3.33 |
